{"source": "patent US6323001A", "about": "“Increasing the trehalose content of organisms by transforming them with combinations of the structural genes for trehalose synthase” (BTG International Ltd., priority 1994, dated 2001)", "key": {"extract of X2180 yeast": {"test_system": "extract of X2180 yeast", "test": "Synthesis of [14C]-trehalose from [U-14C]-G6P by extract of wild-type yeast", "format": "biochemical, S. cerevisiae", "conditions": "2.5 mM ADPG"}, "[1]": {"target": "T1, Tre6P synthase activity of truncated trehalose synthase (Saccharomyces cerevisiae, UniProt Q00764)", "T1 construct": "contained the 57 kDa short chain; made in house; host or cells: baker's yeast (native enzyme, proteolytically truncated during purification)", "T1 sequence (Q00764 1-495)": "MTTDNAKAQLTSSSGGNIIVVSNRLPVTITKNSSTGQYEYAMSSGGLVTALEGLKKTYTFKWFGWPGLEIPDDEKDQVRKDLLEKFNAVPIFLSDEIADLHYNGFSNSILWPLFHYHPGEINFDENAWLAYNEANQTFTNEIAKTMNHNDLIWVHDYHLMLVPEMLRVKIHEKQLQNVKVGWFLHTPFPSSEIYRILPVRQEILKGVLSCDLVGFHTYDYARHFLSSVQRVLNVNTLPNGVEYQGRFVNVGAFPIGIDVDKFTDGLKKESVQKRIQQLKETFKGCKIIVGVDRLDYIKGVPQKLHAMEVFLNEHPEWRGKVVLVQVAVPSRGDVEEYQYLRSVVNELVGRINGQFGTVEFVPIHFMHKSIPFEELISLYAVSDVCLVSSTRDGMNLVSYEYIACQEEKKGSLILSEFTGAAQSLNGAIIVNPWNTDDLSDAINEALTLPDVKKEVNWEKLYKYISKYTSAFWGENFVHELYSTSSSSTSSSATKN", "test": "Tre6P synthase assay of truncated trehalose synthase", "format": "biochemical, baker's yeast", "experimental": "(§1) With microbial materials, Tre6Pase and Tre6P synthase standard assays and other kinetic measurements were made as described by Londesborough & Vuorio [(1991) loc. cit.] except that the standard Tre6P synthase assay mixture contained 5 mM F6P unless stated otherwise.\n(§2) Truncated trehalose synthase containing the short (57 kDa) chain and the 86 and 93 kDa long chain fragments was prepared according to the method of Londesborough & Vuorio (1991) loc. cit.] for proteolytically activated TPS/P complex. Tre6P synthase and Tre6Pase activities were assayed as described by Londesborough & Vuorio [(1991) loc. cit.]. [N-ethyl-1-^14C]-maleimide (ethyl-labelled NEM; 40 mCi/mmol) was NEC-454 from New England Nuclear. N-ethyl-[2,3-^14 C]-maleimide (ring-labelled NEM; 6 mCi/mmol) was CFA 293 from Amersham International. Both were obtained as solutions in n-pentane and the manufacturer's stated specific activities were assumed to be correct. Unlabelled N-ethyl-maleimide (NEM) was E-3876 from Sigma. It was dissolved in 25 mM HEPES pH 7.0 immediately before use and standardized by absorption measurements at 305 nm, assuming an E^mM of 0.62.\n(§3) Truncated trehalose synthase was prepared as described by Londesborough & Vuorio [(1991) loc. cit.] and contained the 57 kDa short chain and 86 and 93 kDa fragments of the long chain. Intact trehalose synthase was prepared as in Example 1. Kinetic assays were done at 30° C. as described in General Methods and Materials."}, "[2]": {"target": "Tre6Pase activity of truncated trehalose synthase (Saccharomyces cerevisiae, UniProt P31688)", "sequence (P31688 whole entry, one chain of several, the tested form may be a part)": "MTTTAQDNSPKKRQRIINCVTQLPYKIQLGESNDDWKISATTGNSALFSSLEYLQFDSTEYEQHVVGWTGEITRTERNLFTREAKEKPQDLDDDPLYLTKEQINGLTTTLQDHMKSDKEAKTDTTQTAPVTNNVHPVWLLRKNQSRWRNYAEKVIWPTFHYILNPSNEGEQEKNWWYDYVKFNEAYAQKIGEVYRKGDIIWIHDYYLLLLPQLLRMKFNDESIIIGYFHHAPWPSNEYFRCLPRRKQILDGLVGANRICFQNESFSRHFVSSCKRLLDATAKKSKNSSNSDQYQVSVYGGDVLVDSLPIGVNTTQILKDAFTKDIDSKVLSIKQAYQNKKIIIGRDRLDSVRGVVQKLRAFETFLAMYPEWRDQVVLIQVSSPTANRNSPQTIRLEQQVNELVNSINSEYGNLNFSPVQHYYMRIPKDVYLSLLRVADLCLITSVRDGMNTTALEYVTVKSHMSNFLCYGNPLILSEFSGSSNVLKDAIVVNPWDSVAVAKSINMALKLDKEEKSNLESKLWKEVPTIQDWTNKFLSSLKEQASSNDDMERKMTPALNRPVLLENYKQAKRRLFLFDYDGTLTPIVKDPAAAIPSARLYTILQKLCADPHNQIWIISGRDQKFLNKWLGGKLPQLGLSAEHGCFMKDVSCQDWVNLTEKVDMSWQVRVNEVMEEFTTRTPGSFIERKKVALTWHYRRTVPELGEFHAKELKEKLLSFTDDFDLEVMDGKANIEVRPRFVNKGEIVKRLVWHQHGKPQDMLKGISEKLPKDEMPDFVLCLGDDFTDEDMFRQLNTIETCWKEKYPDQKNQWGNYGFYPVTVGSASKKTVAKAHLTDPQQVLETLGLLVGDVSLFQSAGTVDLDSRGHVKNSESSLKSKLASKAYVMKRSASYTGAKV", "sequence (P38427 336-1098, one chain of several, further chain)": "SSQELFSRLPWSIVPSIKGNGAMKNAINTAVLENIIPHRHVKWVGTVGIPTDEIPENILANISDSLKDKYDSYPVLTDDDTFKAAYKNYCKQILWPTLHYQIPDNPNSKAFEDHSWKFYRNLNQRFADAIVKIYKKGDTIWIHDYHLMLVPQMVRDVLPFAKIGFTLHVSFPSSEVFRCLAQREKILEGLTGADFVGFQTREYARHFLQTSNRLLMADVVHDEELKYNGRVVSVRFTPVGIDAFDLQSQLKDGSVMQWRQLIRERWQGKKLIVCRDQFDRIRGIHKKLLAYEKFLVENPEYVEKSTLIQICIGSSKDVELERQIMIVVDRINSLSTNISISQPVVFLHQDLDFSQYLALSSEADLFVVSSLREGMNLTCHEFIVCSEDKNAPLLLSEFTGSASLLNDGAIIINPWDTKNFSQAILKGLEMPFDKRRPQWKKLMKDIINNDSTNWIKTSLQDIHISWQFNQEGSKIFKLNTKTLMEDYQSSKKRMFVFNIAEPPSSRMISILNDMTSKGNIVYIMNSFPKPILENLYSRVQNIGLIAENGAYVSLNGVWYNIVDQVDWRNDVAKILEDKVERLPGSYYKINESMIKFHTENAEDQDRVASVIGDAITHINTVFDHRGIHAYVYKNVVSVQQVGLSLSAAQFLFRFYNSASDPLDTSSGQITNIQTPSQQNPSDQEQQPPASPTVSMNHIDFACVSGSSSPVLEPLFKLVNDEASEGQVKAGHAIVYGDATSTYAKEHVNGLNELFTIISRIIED", "test": "Tre6Pase assay of truncated trehalose synthase", "format": "biochemical, baker's yeast", "experimental": "as §1, §2\n(§4) In one experiment, 2.0 μl of 2.4 mM ethyl-labelled NEM was mixed with 150 μl of gel-filtered enzyme and incubated at 23° C. Samples (10 μl) taken at various times up to 190 min were mixed with 60 μl of Laemmli sample buffer (the mercapto-ethanol in this buffer should destroy residual NEM), boiled for 5 min and subjected to SDS-PAGE. At closely similar times (and also at 23 h) other samples (10 μl) were mixed with 100 μl (for Tre6P synthase) or 700 μl (for Tre6Pase) of 5 mg BSA/ml 25 mM HEPES pH 7.0 containing 2 mM MgCl2, 1 mM EDTA, 0.2 M NaCl and 1 mM dithiothreitol (the dithiothreitol should destroy residual NEM) and assayed for Tre6P synthase and Tre6Pase.\nas §3"}, "[3]": {"target": "T2, Tre6P synthase activity of intact trehalose synthase (Saccharomyces cerevisiae, UniProt Q00764)", "T2 construct": "Intact trehalose synthase was purified from commercial baker's yeast; made in house; host or cells: commercial baker's yeast (native enzyme purified, not recombinant)", "T2 sequence (P31688 whole entry, one chain of several)": "as the sequence (P31688 whole entry, one chain of several, the tested form may be a part) above", "T2 sequence (P38427 whole entry, one chain of several, further chain)": "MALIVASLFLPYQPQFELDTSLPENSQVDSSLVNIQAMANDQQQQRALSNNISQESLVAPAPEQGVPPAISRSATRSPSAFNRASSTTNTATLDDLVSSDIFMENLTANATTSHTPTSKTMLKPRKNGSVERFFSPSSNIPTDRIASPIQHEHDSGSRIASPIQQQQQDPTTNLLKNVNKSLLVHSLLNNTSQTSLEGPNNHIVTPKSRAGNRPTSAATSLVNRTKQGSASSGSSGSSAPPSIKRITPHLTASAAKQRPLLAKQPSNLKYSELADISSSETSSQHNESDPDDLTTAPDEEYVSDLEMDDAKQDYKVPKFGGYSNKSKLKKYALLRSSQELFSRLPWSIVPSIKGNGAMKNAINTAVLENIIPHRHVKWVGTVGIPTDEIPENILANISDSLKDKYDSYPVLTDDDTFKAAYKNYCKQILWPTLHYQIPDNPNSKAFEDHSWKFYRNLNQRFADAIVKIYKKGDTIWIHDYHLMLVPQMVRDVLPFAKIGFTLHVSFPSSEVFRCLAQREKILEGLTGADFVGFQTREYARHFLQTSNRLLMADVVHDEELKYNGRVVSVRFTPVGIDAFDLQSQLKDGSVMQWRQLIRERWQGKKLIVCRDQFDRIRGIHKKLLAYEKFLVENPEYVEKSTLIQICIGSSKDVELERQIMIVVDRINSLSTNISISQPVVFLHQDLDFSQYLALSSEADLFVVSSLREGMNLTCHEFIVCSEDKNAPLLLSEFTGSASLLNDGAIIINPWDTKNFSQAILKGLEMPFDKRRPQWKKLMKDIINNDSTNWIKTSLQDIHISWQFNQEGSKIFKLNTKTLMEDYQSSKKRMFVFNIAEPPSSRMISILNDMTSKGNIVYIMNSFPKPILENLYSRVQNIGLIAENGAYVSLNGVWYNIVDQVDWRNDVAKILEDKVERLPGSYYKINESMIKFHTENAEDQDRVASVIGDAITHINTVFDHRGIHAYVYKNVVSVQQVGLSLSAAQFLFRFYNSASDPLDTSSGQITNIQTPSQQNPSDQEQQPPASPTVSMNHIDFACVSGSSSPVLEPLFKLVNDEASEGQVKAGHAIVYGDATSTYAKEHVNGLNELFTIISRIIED", "test": "Tre6P synthase assay of intact trehalose synthase", "format": "biochemical, baker's yeast", "conditions": "5 or 2.5 mM; 1 mM F6P at 1.3 mM phosphate", "experimental": "as §1\nRemoval of the N-terminal 325 or so amino acids from the 123 kDa long chain of intact trehalose synthase by treatment with trypsin in vitro produces an enzyme with catalytic properties like those of the truncated enzyme purified by Londesborough & Vuorio [(1991) loc. cit.]. In one experiment intact trehalose synthase (0.28 Tre6P synthase units, ≈9.4 μg) was incubated with or without 0.5 μg of trypsin at 30° C. in 250 μl of 13 mM HEPES pH 7.0 containing 1 mM MgCl2, 0.5 mM EDTA, 0.5 mM dithiothreitol, 0.2 M NaCl and 0.5 mM benzamidine. Its Tre6P synthase activity was determined at intervals using standard assay mixtures (containing 5 mM F6P) containing no or 4 mM K phosphate pH 6.8, and samples were prepared for SDS-PAGE analysis immediately before and 48 min after addition of the trypsin.\nas §3"}, "[4]": {"target": "T3, 93 and 86 kDa long chain fragments of truncated trehalose synthase (Saccharomyces cerevisiae, UniProt P38427)", "T3 construct": "93 kDa band may also hold TPS2 fragment", "T3 sequence (P38427 336-1098)": "as the sequence (P38427 336-1098, one chain of several, further chain) above", "test": "Labelling of truncated trehalose synthase with [14C]-NEM", "format": "binding, baker's yeast", "conditions": "for NEM entered the long chain fragments: 32 μM ethyl-labelled NEM; for NEM incorporated into long chain fragments at complete loss of Tre6Pase: per mole of truncated trehalose synthase, ring- and ethyl-labelled NEM", "experimental": "as §4\nAfter electrophoresis, the upper (cathode) buffer, containing most of the added radioactivity, was completely removed before disassembling the apparatus. The gel was then fixed, stained and destained as described by Laemmli [(1970) Nature, London 227, 680-685] and dried. […] The Coomassie blue stained bands and adjacent, empty areas (as blanks) were cut out of the dried gel (in later experiments, they were cut from undried gels), broken up and extracted overnight with 1 ml of 5% SDS in pre-blanked scintillation vials. Then 10 ml of a toluene/Triton X100-based scintillant was added, and the tubes were repeatedly counted using a wide energy window to minimise quench effects. After 10 h constant counting levels were reached. Excess radioactivity was calculated by subtracting a blank value obtained from empty regions of the gel."}}, "note": "Like-named read-outs stand apart in the source and are kept apart here."}
{"smiles": "Nc1ncnc2c1ncn2[C@@H]1O[C@H](COP(=O)(O)OP(=O)(O)O[C@H]2O[C@H](CO)[C@@H](O)[C@H](O)[C@H]2O)[C@@H](O)[C@H]1O", "note": "[ADPG, adenosine 5'-diphosphoglucose]", "values": [{"measurement": "effect on rate of appearance of radioactivity", "setting": "extract of X2180 yeast", "result": "did not cause any significant increase"}]}
{"smiles": "O=C(O)c1cc(SSc2ccc([N+](=O)[O-])c(C(=O)O)c2)ccc1[N+](=O)[O-]", "note": "[DTNB, dithiodinitro-benzoate]", "values": [{"measurement": "inhibition at 900 µM", "setting": "[1]; 10 min, 0,9 mM DTNB, 10 min, read-out: Tre6P synthase lost", "result": "< 28", "unit": "%"}, {"measurement": "inhibition at 900 µM", "setting": "[2]; 10 min, read-out: Tre6Pase lost, 0,9 mM DTNB, 10 min", "result": "> 95", "unit": "%"}]}
{"smiles": "O=C(COP(=O)(O)O)[C@@H](O)[C@H](O)[C@H](O)CO", "note": "[Fructose-1-phosphate]", "values": [{"measurement": "inhibition of Tre6P synthase activity", "setting": "[3]", "result": "about 25%"}]}
{"smiles": "CCN1C(=O)C=CC1=O", "note": "[NEM, N-ethyl-maleimide]", "values": [{"measurement": "inhibition at 1900 µM", "setting": "[1]; 1.9 mM NEM, 24° C., about 0.17 mM dithiothreitol, read-out: loss of Tre6P synthase activity", "result": "≤ 24", "unit": "%"}, {"measurement": "inhibition at 32 µM", "setting": "[2]; 0.175 h, read-out: initial Tre6Pase lost, 32 μM ethyl-labelled NEM, 23° C., 10.5 min", "result": 30, "unit": "%"}, {"measurement": "inhibition at 32 µM", "setting": "[2]; 190 min, read-out: initial Tre6Pase lost, 32 μM ethyl-labelled NEM, 23° C., 190 min", "result": 56, "unit": "%"}, {"measurement": "inhibition at 1900 µM", "setting": "[2]; read-out: loss of Tre6Pase activity, 1.9 mM NEM, 24° C., about 0.17 mM dithiothreitol", "result": "≥ 98", "unit": "%"}, {"measurement": "NEM entered the long chain fragments", "setting": "[4]; 10.5 min", "result": "0.20 moles per mole (150 Kg) of enz"}, {"measurement": "NEM entered the long chain fragments", "setting": "[4]; 190 min", "result": "0.32 moles per mole (150 Kg) of enz"}, {"measurement": "NEM incorporated into long chain fragments at complete loss of Tre6Pase", "setting": "[4]", "result": "less than 1 mole"}, {"measurement": "NEM incorporated into long chain fragments at complete loss of Tre6Pase", "setting": "[4]; listed as 14C-N-ethylmaleimide", "result": "about 1 mole"}]}
{"smiles": "O=C(COP(=O)(O)O)[C@@H](O)[C@H](O)[C@H](O)COP(=O)(O)O", "note": "[fructose-1,6-bisphosphate]", "values": [{"measurement": "inhibition of Tre6P synthase activity", "setting": "[3]", "result": "about 25%"}]}
{"smiles": "O=P(O)(O)OC[C@H]1O[C@@](CO)(OP(=O)(O)O)[C@@H](O)[C@@H]1O", "note": "[fructose-2,6-bisphosphate]", "values": [{"measurement": "inhibition of Tre6P synthase activity", "setting": "[3]", "result": "about 25%"}]}
{"smiles": "O=P(O)(O)O[C@H]1O[C@H](CO)[C@@H](O)[C@H](O)[C@H]1O", "note": "[glucose-1-phosphate]", "values": [{"measurement": "inhibition of Tre6P synthase activity", "setting": "[3]", "result": "about 25%"}]}
